According to patent US20260297060A1, “COMPOUNDS FOR THE DEGRADATION OF MUTANT BRAF” (C4 THERAPEUTICS, INC., priority 2023, published 2026):
Where two headings read alike, the source gives them in different places.

Assays:
A375 = A375 cell viability assay (Example 15); type: cell-based, human
Description: FIG. 83 is a line graph showing the results of Compound 26, Compound 26-NMe, Compound 141, and Compound 141-NMe in an A375 viability assay. The y-axis is viability in % and the x-axis is concentration (nM). The experiment was conducted as described in Example 15.
This robust degradation activity is surprising in view of the minimal inhibition-based activity of selected compounds. […] However, the degradation deficient versions of Compound 26 and Compound 141 (N-methyl analogs) had minimal effect on cell viability at a concentration of 100 nM (see FIG. 83 and Example 15).

[1] = Pharmacokinetics after 21 days dosing in the efficacy study (plasma, tumor and brain concentrations; plasma AUC at steady state), Example 14; type: in vivo, female BALB/c nude mice; conditions: for Concentration in Brain / concentration at 24 h: 24 h; for Concentration in Brain: BQL: below the lower limit of quantitation; for concentration at 4 h / concentration at 24 h / concentration at 0.25 h / concentration at 0.5 h / concentration at 1 h / concentration at 2 h / concentration at 8 h / concentration at 10 h / AUC: mouse, po; for AUC: read-out: Plasma AUC at steady state (Day 21), Average
Description: Agents were tested in the A375 human melanoma xenografts. Compound 26 and Compound 141 were administered to BALB/c nude mice bearing A375 tumors from PG-DO and dosed via PO twice a day (BID) or third a day (TIP) or dosed P daily (QD) from PG-D. Dabrafenib was administered to BALB/c nude mice bearing A375 tumors from PG-D1 and dosed via P daily (QD). Compound 26 was dosed at 1.5 mg/kg (QD), 2 mg/kg (TID), 3 mg/kg (BID), 6 mg/kg (QD) and 10 mg/kg (BID) for 21 days. Compound 141 was dosed at 0.75 mg/kg (BID), 1 mg/kg (TID), 1.5 mg/kg (BID), 3 mg/kg (QD) and 5 mg/kg (BID) for 21 days. Dabrafenib was dosed at 100 mg/kg for 21 days. This study was non-GLP.
The plasma samples were collected at predetermined time points for PK analysis. For non-termination plasma collection: the blood samples were collected into the 1.5 mL Eppendorf tubes containing 3 μL of 0.5 M EDTA-K2. And then the anticoagulant blood samples were centrifuged at 2,500 g at 4° C. for 15 minutes. For termination plasma collection: the mice was euthanized at predetermined time points post the treatment, the blood samples were collected into the 1.5 mL Eppendorf tubes containing 15 μL of 0.5 M EDTA-K2. And then the anticoagulant blood samples were centrifuged at 2,500 g at 4° C. for 15 minutes. The plasma samples were separated into 2 aliquots. The 1st was used for PK analysis, and the 2nd was served as backup.
The tumor samples were collected at predetermined time points for PK and WB analysis. The tumor was dissected out and split into 3 parts. The 1st part was used for PK analysis, the 2nd part was used for WB analysis and the last one was used as backup for the study. The samples were transferred into pre-labeled tubes and quickly froze in liquid nitrogen within 2 minutes after dissection. The samples were stored at −80° C. before analysis.
The brain samples were collected at predetermined time points for PK and potential WB analysis. The brain was dissected out and split into 3 parts (left brain, right brain upper and right brain lower), the left brain was used for PK, the right brain upper was used for WB and the last one was used as the backup for the study. The samples were transferred into pre-labeled tubes and quickly froze in liquid nitrogen within 2 minutes after dissection. The samples were stored at −80° C. before analysis.
The harvested plasma and tumor samples were processed for pharmacokinetics analysis by LC-MS/MS with a concentration range of 1.00-1,000 ng/mL for dabrafenib in plasma and 0.0500-50 ng/mL in tumor and brain homogenate, 5.00-10,000 ng/mL for Compound 141 in plasma and 0.200~200 ng/ml in tumor and brain homogenate. 20.0~20,000 ng/mL for Compound 26 in plasma and 0.5~500 ng/mL for Compound 26 tumor and brain homogenate.
Dabrafenib, Compound 26 and Compound 141 in female BALB/c nude mice plasma (K2-EDTA), tumor and brain homogenate were analyzed by LC-MS/MS (Triple Quad 6500+ Low Mass). Verapamil (5 ng/mL) in acetonitrile: methanol (V: V=95:5) was used as the internal standard for Dabrafenib, Compound 26 and Compound 141 in plasma. Verapamil (0.5 ng/mL) in acetonitrile: methanol (V: V=95:5) was used as the internal standard for Dabrafenib, Compound 26 and Compound 141 in tumor and brain homogenate.
An aliquot of 10 μL unknown sample, calibration standard, quality control, dilute quality control, single blank and double blank samples were added to the 96-well plate. Each sample for Dabrafenib, Compound 26 and Compound 141 in plasma (except the double blank) was quenched with 200 μL IS respectively (double blank sample was quenched with 200 μL ACN: MeOH (V: V=95:5)); each sample for Dabrafenib, Compound 26 and Compound 141 in tumor and brain(except the double blank) was quenched with 100 μL IS respectively (double blank sample was quenched with 100 μL ACN: MeOH (V: V=95:5)); and then the mixture was vortex-mixed for 5 min at 800 rpm and centrifuged for 15 min at 3220 g (4000 rpm), 4° C. […]

[2] = plasma, 1.5 mg/kg p.o. BID x 21 days, mean ± SEM
[3] = plasma, 1.5 mg/kg p.o. BID x 21 days, mean ± SEM, read-out: Concentration in Plasma
[4] = plasma, 2 mg/kg p.o. TID x 21 days, mean ± SEM
[5] = plasma, 2 mg/kg p.o. TID x 21 days, mean ± SEM, read-out: Concentration in Plasma
[6] = plasma, 3 mg/kg p.o. BID x 21 days, mean ± SEM
[7] = plasma, 3 mg/kg p.o. BID x 21 days, mean ± SEM, read-out: Concentration in Plasma
[8] = plasma, 6 mg/kg p.o. QD x 21 days, mean ± SEM
[9] = plasma, 6 mg/kg p.o. QD x 21 days, mean ± SEM, read-out: Concentration in Plasma
[10] = plasma, 10 mg/kg p.o. BID x 21 days, mean ± SEM
[11] = plasma, 10 mg/kg p.o. BID x 21 days, mean ± SEM, read-out: Concentration in Plasma
[12] = tumor, 1.5 mg/kg p.o. BID x 21 days, mean ± SEM, read-out: Concentration in Tumor
[13] = tumor, 2 mg/kg p.o. TID x 21 days, mean ± SEM, read-out: Concentration in Tumor
[14] = tumor, 3 mg/kg p.o. BID x 21 days, mean ± SEM, read-out: Concentration in Tumor
[15] = tumor, 6 mg/kg p.o. QD x 21 days, mean ± SEM, read-out: Concentration in Tumor
[16] = tumor, 10 mg/kg p.o. BID x 21 days, mean ± SEM, read-out: Concentration in Tumor

For `CCN(C)S(=O)(=O)Nc1ccc(F)c(Oc2ccc3ncn([C@H]4COC5(CCN(C6CC7(C6)CN(c6cc8c(cc6F)c(N6CCC(=O)NC6=O)nn8C)C7)CC5)C4)c(=O)c3c2)c1C#N` [Compound 26, (3R)-3-[6-[2-cyano-3-[[ethyl(methyl)sulfamoyl]amino]-6-fluoro-phenoxy]-4-oxo-quinazolin-3-yl]-8-[2-[3-(2,4-dioxohexahydropyrimidin-1-yl)-5-fluoro-1-methyl-indazol-6-yl]-2-azaspiro[3.3]heptan-6-yl]-1-oxa-8-azaspiro[4.5]decane], the “cytotoxicity (in words)” value (A375; A375 cells) was “potent cytotoxic agents”, the “effect on cancer cell viability” value (A375; human, a375 cells, 0.1 µM) was no less than 30% and the “Concentration in Brain” value ([1]; 1.5 mg/kg p.o. BID x 21 days) was “BQL”. For the same compound, the “Concentration in Brain” value ([1]; 2 mg/kg p.o. TID x 21 days) was “BQL”, the “Concentration in Brain” value ([1]; 3 mg/kg p.o. BID x 21 days) was “BQL” and the concentration at 4 h ([1]; brain, 1.5 mg/kg p.o. BID x 21 days, mean ± SEM, read-out: Concentration in Brain) was 28 ± 8.47 ng/g. The concentration at 4 h ([1]; brain, 2 mg/kg p.o. TID x 21 days, mean ± SEM, read-out: Concentration in Brain) was 51.1 ± 11.5 ng/g, the concentration at 4 h ([1]; brain, 3 mg/kg p.o. BID x 21 days, mean ± SEM, read-out: Concentration in Brain) was 66.6 ± 4.67 ng/g and the concentration at 4 h ([1]; brain, 6 mg/kg p.o. QD x 21 days, mean ± SEM, read-out: Concentration in Brain) was 116 ± 8.11 ng/g. It also gave a concentration at 24 h ([1]; brain, 6 mg/kg p.o. QD x 21 days, read-out: Concentration in Brain) of 7.19 ng/g, a concentration at 4 h ([1]; brain, 10 mg/kg p.o. BID x 21 days, mean ± SEM, read-out: Concentration in Brain) of 233 ± 48.4 ng/g and a concentration at 24 h ([1]; brain, 10 mg/kg p.o. BID x 21 days, read-out: Concentration in Brain) of 7.79 ng/g. It also gave a concentration at 0.25 h [1, 2] of 1330 ± 120 ng/mL, a concentration at 0.5 h [1, 2] of 1910 ± 332 ng/mL and a concentration at 1 h [1, 2] of 3490 ± 364 ng/mL. For the same compound, the concentration at 2 h [1, 2] was 3140 ± 671 ng/mL, the concentration at 4 h [1, 3] was 2160 ± 716 ng/mL and the concentration at 8 h [1, 2] was 912 ± 118 ng/mL. It also gave a concentration at 10 h [1, 2] of 694 ± 79.9 ng/mL, a concentration at 24 h [1, 3] of 32.3 ng/mL and an AUC ([1]; plasma, 1.5 mg/kg p.o. BID × 21 days) of 37400 ng·h/mL. It also gave a concentration at 0.25 h [1, 4] of 2630 ± 273 ng/mL, a concentration at 0.5 h [1, 4] of 5750 ± 1100 ng/mL and a concentration at 1 h [1, 4] of 5420 ± 571 ng/mL. The concentration at 2 h [1, 4] was 5110 ± 286 ng/mL, the concentration at 4 h [1, 5] was 3790 ± 666 ng/mL and the concentration at 8 h [1, 4] was 2060 ± 150 ng/mL. It also gave a concentration at 10 h [1, 4] of 1550 ± 37.1 ng/mL, a concentration at 24 h [1, 5] of 106 ± 17.7 ng/mL and an AUC ([1]; plasma, 2 mg/kg p.o. TID × 21 days) of 88300 ng·h/mL. It also gave a concentration at 0.25 h [1, 6] of 2490 ± 107 ng/mL, a concentration at 0.5 h [1, 6] of 4860 ± 801 ng/mL and a concentration at 1 h [1, 6] of 5830 ± 591 ng/mL. For the same compound, the concentration at 2 h [1, 6] was 6750 ± 675 ng/mL, the concentration at 4 h [1, 7] was 3970 ± 452 ng/mL and the concentration at 8 h [1, 6] was 3030 ± 252 ng/mL. It also gave a concentration at 10 h [1, 6] of 2470 ± 266 ng/mL, a concentration at 24 h [1, 7] of 116 ± 2.4 ng/mL and an AUC ([1]; plasma, 3 mg/kg p.o. BID × 21 days) of 87900 ng·h/mL. For the same compound, the concentration at 0.25 h [1, 8] was 4440 ± 284 ng/mL, the concentration at 0.5 h [1, 8] was 9990 ± 1160 ng/mL and the concentration at 1 h [1, 8] was 12900 ± 669 ng/mL. For the same compound, the concentration at 2 h [1, 8] was 14600 ± 723 ng/mL, the concentration at 4 h [1, 9] was 8710 ± 1880 ng/mL and the concentration at 8 h [1, 8] was 8220 ± 421 ng/mL. The concentration at 10 h [1, 8] was 6200 ± 192 ng/mL, the concentration at 24 h [1, 9] was 156 ± 10.9 ng/mL and the AUC ([1]; plasma, 6 mg/kg p.o. QD × 21 days) was 115000 ng·h/mL. For the same compound, the concentration at 0.25 h [1, 10] was 8790 ± 316 ng/mL, the concentration at 0.5 h [1, 10] was 19300 ± 2220 ng/mL and the concentration at 1 h [1, 10] was 20200 ± 2240 ng/mL. For the same compound, the concentration at 2 h [1, 10] was 21300 ± 1560 ng/mL, the concentration at 4 h [1, 11] was 15100 ± 2210 ng/mL and the concentration at 8 h [1, 10] was 10900 ± 379 ng/mL. It also gave a concentration at 10 h [1, 10] of 8660 ± 186 ng/mL, a concentration at 24 h [1, 11] of 273 ± 24.8 ng/mL and an AUC ([1]; plasma, 10 mg/kg p.o. BID × 21 days) of 312000 ng·h/mL. For the same compound, the concentration at 4 h [1, 12] was 392 ± 150 ng/g, the concentration at 24 h [1, 12] was 11.8 ± 1.59 ng/g and the concentration at 4 h [1, 13] was 930 ± 57.3 ng/g. The concentration at 24 h [1, 13] was 80.7 ± 25.2 ng/g, the concentration at 4 h [1, 14] was 1430 ± 159 ng/g and the concentration at 24 h [1, 14] was 54.3 ± 8.91 ng/g. The concentration at 4 h [1, 15] was 2910 ± 459 ng/g, the concentration at 24 h [1, 15] was 338 ± 169 ng/g and the concentration at 4 h [1, 16] was 4250 ± 313 ng/g. The concentration at 24 h [1, 16] was 663 ± 153 ng/g.
